Assay results reported in patent publication US20160051543A1 (CHANRX CORPORATION, priority 2013, published 2016).

Assays:
[1] = Plasma concentrations after a single 300 mg dose of vanoxerine in 25 patients (Example 1); format: in vivo, human; conditions: any time point
Procedure: Each patient gave samples before administration of their dose, and then again at nine further time points, 30 minutes after administration, 1, 2, 3, 4, 6, 8, 12, and 24 hours post administration.

[2] = cited from earlier work
[3] = Adverse events in the AF/AFL conversion study (Example 6); format: in vivo, human
Description: (§1) The vanoxerine or identical appearing placebo was randomly assigned and administered in a double-blinded fashion.

clinical = conditions: human, in vivo
Description: The results are listed below in Table 7.

[4] = test system: conversion to normal sinus rhythm; test: Human plasma concentration charted against conversion to normal sinus rhythm; format: in vivo
Procedure: This study favorable compares favorably to human models where plasma concentration is charted against conversion to normal sinus rhythm. […] However, most conversions occurred in the range of about 60 ng/ml. Accordingly, modifying doses to reach 60 ng/ml or higher is preferred for effective conversion to normal sinus rhythm.

[5] = test system: recent onset symptomatic AF/AFL; test: Double-blinded placebo-controlled study, conversion of recent onset symptomatic AF/AFL to sinus rhythm (Example 6); format: in vivo, human
Procedure: as §1
Accordingly, a measurement of the improvement comprises a comparison to the rate of conversion of placebo, wherein the improvement is based on the percent increase in conversion over placebo. The 200 mg, having an improvement of conversion of 38%, 96%, and 55% at the above time points, 300 mg: 207%, 126%, and 68%, and the 400 mg: 300%, 230%, and 121%.
Definition of “pure” atrial flutter: only Atrial Flutter (no AF) seen at −30, −15, and 0 time points. Conversion at any time within 24 hours.
The highest oral dose of 400 mg achieved a conversion rate of 76% at 8 hours and 84% within 24 hours.

[6] = Daily dosing for 7 days in four patients (Example 4); format: in vivo, human
[7] = cited from earlier work; remark: listed apart in the source
[8] = between patients; cited from earlier work
[9] = human, in vivo
Procedure: A standardized meal was served 15 minutes prior to each dosing.
The non-linear kinetics may be due to increasing bioavailability at higher doses based on a saturation of first pass metabolism.

Fc1ccc(C(OCCN2CCN(CCCc3ccccc3)CC2)c2ccc(F)cc2)cc1 [Vanoxerine, 1-[2-[bis(4-fluorophenyl)methoxy]ethyl]-4-(3-phenylpropyl)piperazine]
Highest plasma level, low concentration group [1]: ~40 ng/mL
AUC ([2]; fasting (no food intake for eight hours)): lowest AUC
Cmax ([2]; high-fat diet (about 73 g fat) versus fasting and low-fat): significantly increased Cmax
Time the concentration remains elevated ([2]; high-fat diet): four to six hours
tmax ([2]; high-fat diet): nearly two and a half hours
Number of adverse events reported ([3]; 200 mg (22)): 8 AEs
Number of serious adverse events ([3]; 200 mg (22)): 1 SAE
Number of adverse events reported ([3]; 300 mg (25)): 12 AEs
Number of adverse events reported ([3]; 400 mg (25)): 23 AEs
Number of serious adverse events ([3]; 400 mg (25)): 1 SAE
Tolerability ([3]; all doses): well tolerated at all doses
1:1 AFL post dose ([3]; any subject): No 1:1 AFL seen post dose in any subject
Proarrhythmia ([3]; conversion of recent onset symptomatic AF and AFL): absence of proarrhythmia
Serious adverse events in the study ([3]; one at 200 mg, one at 400 mg, neither related to the study drug): two
PK linearity / dose proportionality (clinical): linear and dose proportional
TMax (mean +− SD) (clinical): TMax 1.27 +− 0.5 hr
TMax range (clinical; 50 mg): (0.5-2.0) hr
half-life (clinical; 50 mg): 4.71 to 111 h
half-life (clinical; 75 mg): 10.3 to 117 h
half-life (clinical; 100 mg): 5.56 to 125 h
Concentration at which most conversions occurred [4]: about 60 ng/ml
Improvement of conversion (percent increase over placebo) ([5]; 200 mg, 0-4 hours): 38%
Improvement of conversion (percent increase over placebo) ([5]; 200 mg, 0-8 hours): 96%
Improvement of conversion (percent increase over placebo) ([5]; 200 mg, 0-24 hours): 55%
Improvement of conversion (percent increase over placebo) ([5]; 300 mg, 0-24 hours): 68%
Improvement of conversion (percent increase over placebo) ([5]; 400 mg, 0-4 hours): 300%
Improvement of conversion (percent increase over placebo) ([5]; 400 mg, 0-8 hours): 230%
Dose dependence of conversion to sinus rhythm ([5]; doses of 200, 300 and 400 mg): highly statistically significant dose dependent increase
Systolic blood pressure and heart rate ([6]; 100 mg for 7 days): increases in systolic blood pressure and heart rate were seen
Time to steady-state levels ([6]; all patients, 50, 100, 150 mg daily): within one week
Plasma half-life ([7]; in vivo): about 22 hours
Steady state achieved within ([7]; oral dosing, some cases): ≤ 3 days
Difference in Cmax concentrations or AUC between slower and higher metabolism groups [8]: ≥ 10 fold
All patients achieved steady state after [9]: 7 to 10 days
Dose proportionality of steady-state serum levels [9]: disproportionately and statistically greater levels at higher doses
Steady-state plasma concentrations achieved after [9]: 3 days
